Laboratory results: US5696112A, “Fused heterocyclic azepines as vasopressin antagonists” (American Cyanamid Company, priority 1995, dated 1997)

Experiments:
[1] = target: T1, Rat Hepatic V1 Receptors (vasopressin V1) (Rattus norvegicus, UniProt P30560); test: Binding Assay to Rat Hepatic V1 Receptors; conditions: rat hepatic V1, [3H]vasopressin
T1 construct: Rat liver plasma membranes expressing the vasopressin V1 receptor subtypes are isolated by sucrose density gradient; from tissue; host or cells: rat liver plasma membranes
Procedure: Binding Assay to Rat Hepatic V1 Receptors
Rat liver plasma membranes expressing the vasopressin V1 receptor subtypes are isolated by sucrose density gradient according to the method described by Lesko et al., (1973). These membranes are quickly suspended in 50.0 mMTris.HCl buffer, pH 7.4, containing 0.2% bovine serum albumin (BSA) and 0.1 mM phenylmethylsulfonylfluoride (PMSF) and kept frozen at -70° C. until used in subsequent binding experiments. For binding experiments, the following is added to the wells of a ninety-six well format microtiter plate: 100 μl of 100.0 mM Tris.HCl buffer containing 10.0 mM MgCl2, 0.2% heat inactivated BSA and a mixture of protease inhibitors: leupeptin, 1.0 mg %; aprotinin, 1.0 mg %, 1,10-phenanthroline,2.0 mg %; trypsin inhibitor, 10.0 mg % and 0.1 mM PMSF, 20.0 μl of [phenylalanyl-3,4,5-^3 H]vasopressin (S.A. 45.1 Ci/mmole) at 0.8 nM, and the reaction initiated by the addition of 80 μl of tissue membranes containing 20 μg of tissue protein. The plates are kept undisturbed on the bench top at room temperature for 120 min. to reach equilibrium. Nonspecific samples are assayed in the presence of 0.1 μM of the unlabeled antagonist phenylalanylvasopressin, added in 20.0 μl volume to a final incubation volume of 200 μl. Upon completion of binding, the content of each well is filtered off, using a Brandel® cell Harvester (Gaithersburg, Md.). The radioactivity trapped on the filter disk by the ligand-receptor complex is assessed by liquid scintillation counting in a Packard LS Counter, with an efficiency of 65% for tritium. The data are analyzed for IC50 values by the LUNDON-2 program for competition (LUNDON SOFTWARE, OH).

[2] = target: T2, Rat Kidney Medullary V2 Receptors (vasopressin V2) (Rattus norvegicus, UniProt Q00788); test: Binding Assay to Rat Kidney Medullary V2 Receptors; conditions: rat kidney medullary V2, [3H]Arg8-vasopressin
T2 construct: Medullary tissues from rat kidneys are dissected out; from tissue; host or cells: rat kidney medulla membranes
In short: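 Membranes from rat kidney medulla (200 μg protein) were equilibrated for 120 min on the bench with [3H]arginine8-vasopressin, added as a 0.8 nM solution, in Tris-HCl containing MgCl2, heat-inactivated BSA and protease inhibitors. Compounds were dissolved in 50% DMSO, and 1.0 μM unlabeled ligand gave nonspecific binding. Filtration, scintillation counting and competition analysis gave IC50.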

T1 sequence (P30560 whole entry): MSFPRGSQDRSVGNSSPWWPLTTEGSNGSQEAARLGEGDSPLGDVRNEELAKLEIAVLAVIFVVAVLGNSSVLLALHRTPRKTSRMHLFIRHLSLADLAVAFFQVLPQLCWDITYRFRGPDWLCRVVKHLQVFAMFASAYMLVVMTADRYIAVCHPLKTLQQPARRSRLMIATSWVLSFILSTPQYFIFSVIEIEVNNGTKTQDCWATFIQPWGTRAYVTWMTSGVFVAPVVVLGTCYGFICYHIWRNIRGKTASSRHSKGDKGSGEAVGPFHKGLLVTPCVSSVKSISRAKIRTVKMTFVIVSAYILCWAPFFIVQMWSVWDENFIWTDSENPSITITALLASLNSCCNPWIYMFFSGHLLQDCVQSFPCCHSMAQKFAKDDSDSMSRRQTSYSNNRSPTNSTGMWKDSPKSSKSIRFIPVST
T2 sequence (Q00788 whole entry): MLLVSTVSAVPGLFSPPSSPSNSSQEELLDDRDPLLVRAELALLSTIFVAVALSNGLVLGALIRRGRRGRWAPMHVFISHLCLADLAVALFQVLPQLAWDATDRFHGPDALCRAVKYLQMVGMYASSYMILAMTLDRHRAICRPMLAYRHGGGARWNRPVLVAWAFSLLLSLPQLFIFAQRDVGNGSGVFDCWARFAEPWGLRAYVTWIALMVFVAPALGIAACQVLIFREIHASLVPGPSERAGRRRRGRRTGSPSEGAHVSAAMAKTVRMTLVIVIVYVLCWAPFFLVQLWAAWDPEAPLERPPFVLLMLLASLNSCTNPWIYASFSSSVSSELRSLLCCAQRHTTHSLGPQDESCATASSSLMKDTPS

| IC50 [1] [µM] | IC50 [2] [µM] | SMILES |
| --- | --- | --- |
| 0.21 | 0.034 | O=C(Nc1ccc(C(=O)N2CCCCc3sccc32)cc1)c1cc(Cl)ccc1Cl [Example 9, N-[4-[(5,6,7,8-Tetrahydro-4H-thieno[3,2-b]azepin-4-yl)carbonyl]phenyl]2,5-dichlorobenzamide] |
| 0.014 | 0.01 | Cc1ccccc1CC(=O)Nc1ccc(C(=O)N2CCCCc3sccc32)cc1 [Example 13, N-[4-[(5,6,7,8-Tetrahydro-4H-thieno[3,2-b]azepin-4-yl)carbonyl]phenyl]2-methylbenzeneacetamide] |
| 0.23 | 0.019 | O=C(Nc1ccc(C(=O)N2CCCCc3sc(Cl)cc32)cc1)c1ccc(Cl)cc1Cl [Example 93, 2,4-Dichloro-N-[4-[(2-chloro-5,6,7,8-tetrahydro-4H-thieno[3,2-b]azepin-4-yl)carbonyl]phenyl]benzamide] |
| 0.16 | 0.01 | Cc1c(F)cccc1C(=O)Nc1ccc(C(=O)N2CCCCc3sc(Cl)cc32)cc1 [Example 94, N-[4-[(2-Chloro-5,6,7,8-tetrahydro-4H-thieno[3,2-b]azepin-4-yl)carbonyl]phenyl]-3-fluoro-2-methylbenzamide] |
| 0.088 | 0.01 | Cc1ccccc1C(=O)Nc1ccc(C(=O)N2CCCCc3sc(Cl)cc32)cc1 [Example 96, N-[4-[(2-Chloro-5,6,7,8-tetrahydro-4H-thieno[3,2-b]azepin-4-yl)carbonyl]phenyl]-2-methylbenzamide] |
| 7.6 | 0.25 | Cc1c(F)cccc1C(=O)Nc1ccc(C(=O)N2CCCC(=O)c3sccc32)cc1 [Example 155, N-[4-[(5,6,7,8-Tetrahydro-8-oxo-4H-thieno[3,2-b]azepine-4-yl)carbonyl]phenyl]-3-fluoro-2-methylbenzamide] |
| 5.5 | 0.33 | O=C(Nc1ccc(C(=O)N2CCCC(=O)c3sccc32)cc1)c1ccc(Cl)cc1Cl [Example 156, N-[4-[(5,6,7,8-Tetrahydro-8-oxo-4H-thieno[3,2-b]azepin-4-yl)carbonyl]-phenyl]-2,4-dichlorobenzamide] |
| 3.6 | 0.25 | Cc1ccccc1C(=O)Nc1ccc(C(=O)N2CCCC(=O)c3sccc32)cc1 [Example 157, N-[4-[(5,6,7,8-Tetrahydro-8-oxo-4H-thieno[3,2-b]azepin-4-yl)carbonyl]-phenyl]-2-methylbenzamide] |
